Test results published in ChEMBL document CHEMBL4004878, “Design, synthesis and structure-bactericidal activity relationships of novel 9-oxime ketolides and reductive epimers of acylides” (2017).
≈ marks a conversion by molar mass, not a printed value.

Legend:
Assay type in all cases: functional
Streptococcus pneumoniae [1] = assay: Ratio of MBC to MIC for […] Streptococcus pneumoniae ATCC 49619
Streptococcus pneumoniae [2] = assay: Ratio of MBC to MIC for penicillin-susceptible Streptococcus pneumoniae PU09
Streptococcus pyogenes [3] = assay: Bacteriostatic activity against Streptococcus pyogenes 01-968 expressing inducible ermA after 20 to 24 hrs by two-fold microbroth dilution method
Staphylococcus aureus [4] = assay: Bactericidal activity against methicillin-resistant Staphylococcus aureus PU32 expressing inducible ermA incubated for 20 hrs followed by sub-culturing for 24 hrs in absence of compound
Staphylococcus aureus [5] = assay: Bacteriostatic activity against methicillin-resistant Staphylococcus aureus PU32 expressing inducible ermA after 20 hrs by two-fold microbroth dilution method; details: PU32, 20 h
Streptococcus pneumoniae [6] = assay: Bactericidal activity against penicillin-susceptible Streptococcus pneumoniae PU09 incubated for 20 to 24 hrs followed by sub-culturing for 24 hrs in absence of compound
Moraxella catarrhalis [7] = assay: Ratio of MBC to MIC against erythromycin-susceptible Moraxella catarrhalis 13L332
Streptococcus pneumoniae [8] = assay: Bacteriostatic activity against penicillin-susceptible Streptococcus pneumoniae PU09 after 20 to 24 hrs by two-fold microbroth dilution method
Streptococcus pneumoniae [9] = assay: Bactericidal activity against […] Streptococcus pneumoniae ATCC 49619 incubated for 20 to 24 hrs followed by sub-culturing for 24 hrs in absence of compound
Moraxella catarrhalis [10] = assay: Bacteriostatic activity against erythromycin-susceptible Moraxella catarrhalis 13L332 after 20 hrs by two-fold microbroth dilution method; details: 13L332, 20 h
Staphylococcus aureus [11] = assay: Bactericidal activity against methicillin-resistant Staphylococcus aureus PU20 expressing constitutive ermC incubated for 20 hrs followed by sub-culturing for 24 hrs in absence of compound
Streptococcus pneumoniae [12] = assay: Bacteriostatic activity against […] Streptococcus pneumoniae ATCC 49619 after 20 to 24 hrs by two-fold microbroth dilution method
Staphylococcus aureus [13] = assay: Ratio of MBC to MIC against methicillin-resistant Staphylococcus aureus PU32 expressing inducible ermA
Staphylococcus aureus [14] = assay: Bacteriostatic activity against methicillin-resistant Staphylococcus aureus PU20 expressing constitutive ermC after 20 hrs by two-fold microbroth dilution method; details: PU20, 20 h
Streptococcus pyogenes [15] = assay: Bactericidal activity against Streptococcus pyogenes 01-968 expressing inducible ermA incubated for 20 to 24 hrs followed by sub-culturing for 24 hrs in absence of compound
Moraxella catarrhalis [16] = assay: Bactericidal activity against erythromycin-susceptible Moraxella catarrhalis 13L332 incubated for 20 hrs followed by sub-culturing for 24 hrs in absence of compound
Streptococcus pyogenes [17] = assay: Ratio of MBC to MIC for Streptococcus pyogenes 01-968 expressing inducible ermA
Streptococcus pyogenes [18] = assay: Bactericidal activity against Streptococcus pyogenes 12-207 expressing mef incubated for 20 to 24 hrs followed by sub-culturing for 24 hrs in absence of compound
Streptococcus pyogenes [19] = assay: Ratio of MBC to MIC for Streptococcus pyogenes 12-207 expressing mef
Haemophilus influenzae [20] = assay: Ratio of MBC to MIC for azithromycin susceptible/ampicillin-resistant Haemophilus influenzae 11P307
Staphylococcus aureus [21] = assay: Ratio of MBC to MIC for methicillin-resistant Staphylococcus aureus PU20 expressing constitutive ermC
Haemophilus influenzae [22] = assay: Bacteriostatic activity against azithromycin-susceptible/ampicillin-resistant Haemophilus influenzae 11P307 after 20 to 24 hrs by two-fold microbroth dilution method
Moraxella catarrhalis [23] = assay: Bacteriostatic activity against erythromycin-susceptible Moraxella catarrhalis 11B366 after 20 hrs by two-fold microbroth dilution method; details: 11B366, 20 h
Streptococcus pyogenes [24] = assay: Bacteriostatic activity against Streptococcus pyogenes 12-207 expressing mef after 20 to 24 hrs by two-fold microbroth dilution method
Moraxella catarrhalis [25] = assay: Ratio of MBC to MIC against erythromycin-susceptible Moraxella catarrhalis 11B366
Haemophilus influenzae [26] = assay: Bactericidal activity against azithromycin susceptible/ampicillin-resistant Haemophilus influenzae 11P307 incubated for 20 to 24 hrs followed by sub-culturing for 24 hrs in absence of compound
Moraxella catarrhalis [27] = assay: Bactericidal activity against erythromycin-susceptible Moraxella catarrhalis 11B366 incubated for 20 hrs followed by sub-culturing for 24 hrs in absence of compound

| SMILES | Ratio (Streptococcus pneumoniae [1]) | Ratio (Streptococcus pneumoniae [2]) | MIC (Streptococcus pyogenes [3]) [µg/mL] | MBC (Staphylococcus aureus [4]) [µg/mL] | MIC (Staphylococcus aureus [5]) [µg/mL] | MBC (Streptococcus pneumoniae [6]) [µg/mL] | Ratio (Moraxella catarrhalis [7]) | MIC (Streptococcus pneumoniae [8]) [µg/mL] | MBC (Streptococcus pneumoniae [9]) [µg/mL] | MIC (Moraxella catarrhalis [10]) [µg/mL] | MBC (Staphylococcus aureus [11]) [µg/mL] | MIC (Streptococcus pneumoniae [12]) [µg/mL] | Ratio (Staphylococcus aureus [13]) | MIC (Staphylococcus aureus [14]) [µg/mL] | MBC (Streptococcus pyogenes [15]) [µg/mL] | MBC (Moraxella catarrhalis [16]) [µg/mL] | Ratio (Streptococcus pyogenes [17]) | MBC (Streptococcus pyogenes [18]) [µg/mL] | Ratio (Streptococcus pyogenes [19]) | MIC (Haemophilus influenzae [22]) [µg/mL] | also measured |
| --- | --- | --- | --- | --- | --- | --- | --- | --- | --- | --- | --- | --- | --- | --- | --- | --- | --- | --- | --- | --- | --- |
| CC[C@H]1OC(=O)[C@H](C)[C@H](OC(=O)Cc2ccccn2)[C@H](C)[C@@H](O[C@@H]2O[C@H](C)C[C@H](N(C)C)[C@H]2O)[C@@](C)(OC/C=C/c2cnc3ccccc3c2)C[C@@H](C)/C(=N\O)[C@H](C)[C@H]2OC(=O)O[C@@]21C | 4 | 2 | 8 (≈ 8.86 µM) | > 256 | 64 (≈ 70.9 µM) | 16 (≈ 17.7 µM) | >8 | 8 (≈ 8.86 µM) | 16 (≈ 17.7 µM) | 0.5 (≈ 0.554 µM) | > 256 | 4 (≈ 4.43 µM) | >4 | 256 (≈ 283 µM) | 64 (≈ 70.9 µM) | > 4 | 8 | – | – | – | – |
| CC[C@H]1OC(=O)[C@H](C)[C@H](OC(=O)Cc2ccccn2)[C@H](C)[C@@H](O[C@@H]2O[C@H](C)C[C@H](N(C)C)[C@H]2O)[C@](C)(OC)C[C@@H](C)/C(=N\OC)[C@H](C)[C@H]2OC(=O)O[C@@]21C | – | – | > 64 | > 256 | > 256 | > 64 | – | 32 (≈ 41.9 µM) | > 64 | 32 (≈ 41.9 µM) | > 256 | > 64 | – | > 256 | > 64 | > 64 | – | – | – | – | – |
| CC[C@H]1OC(=O)[C@@](C)(F)C(=O)[C@H](C)[C@@H](O[C@@H]2O[C@H](C)C[C@H](N(C)C)[C@H]2O)[C@](C)(OC)C[C@@H](C)/C(=N\OCC#Cc2cncc3ccccc23)[C@H](C)[C@H]2OC(=O)O[C@@]21C | >=4 | 4 | 0.062 (≈ 0.0764 µM) | > 8 | 1 (≈ 1.23 µM) | 1 (≈ 1.23 µM) | – | 0.25 (≈ 0.308 µM) | 0.031 (≈ 0.0382 µM) | – | 128 (≈ 158 µM) | ≤ 0.008 | >8 | 32 (≈ 39.4 µM) | > 0.5 | – | >8 | > 0.25 | >8 | 8 (≈ 9.85 µM) | Ratio (Haemophilus influenzae [20]): >8; Ratio (Staphylococcus aureus [21]): 4; MIC (Moraxella catarrhalis [23]): 1 µg/mL (≈ 1.23 µM); MIC (Streptococcus pyogenes [24]): 0.031 µg/mL (≈ 0.0382 µM); Ratio (Moraxella catarrhalis [25]): 2; MBC (Haemophilus influenzae [26]): > 64 µg/mL; MBC (Moraxella catarrhalis [27]): 2 µg/mL (≈ 2.46 µM) |
| CC[C@H]1OC(=O)[C@H](C)[C@@H](OC(=O)Cc2ccccn2)[C@H](C)[C@@H](O[C@@H]2O[C@H](C)C[C@H](N(C)C)[C@H]2O)[C@](C)(OC)C[C@@H](C)/C(=N\OC)[C@H](C)[C@H]2OC(=O)O[C@@]21C | – | 2 | 0.25 (≈ 0.327 µM) | > 32 | 4 (≈ 5.24 µM) | 1 (≈ 1.31 µM) | >8 | 0.5 (≈ 0.655 µM) | 0.25 (≈ 0.327 µM) | 0.25 (≈ 0.327 µM) | > 256 | 0.125 (≈ 0.164 µM) | >8 | > 256 | 2 (≈ 2.62 µM) | > 2 | 8 | – | – | – | – |
| C#CCN(C)[C@H]1C[C@@H](C)O[C@@H](O[C@@H]2[C@@H](C)C(=O)[C@@H](C)C(=O)O[C@H](CC)[C@@]3(C)OC(=O)O[C@@H]3[C@@H](C)/C(=N/OC/C=C/c3cnc4ccccc4c3)[C@H](C)C[C@@]2(C)OC)[C@@H]1O | – | 4 | 0.5 (≈ 0.61 µM) | > 16 | 16 (≈ 19.5 µM) | 4 (≈ 4.88 µM) | – | 1 (≈ 1.22 µM) | 1 (≈ 1.22 µM) | – | – | 0.25 (≈ 0.305 µM) | – | > 256 | > 4 | – | >8 | > 8 | >8 | > 256 | MIC (Moraxella catarrhalis [23]): 32 µg/mL (≈ 39 µM); MIC (Streptococcus pyogenes [24]): 1 µg/mL (≈ 1.22 µM); Ratio (Moraxella catarrhalis [25]): >8; MBC (Moraxella catarrhalis [27]): > 256 µg/mL |
| CC[C@H]1OC(=O)[C@H](C)[C@@H](OC(=O)Cc2ccccn2)[C@H](C)[C@@H](O[C@@H]2O[C@H](C)C[C@H](N(C)C)[C@H]2O)[C@](C)(OC)C[C@@H](C)/C(=N\OC/C=C/c2cccnc2)[C@H](C)[C@H]2OC(=O)O[C@@]21C | >4 | >8 | 64 (≈ 73.8 µM) | > 256 | 256 (≈ 295 µM) | > 64 | 2 | 8 (≈ 9.23 µM) | > 64 | 32 (≈ 36.9 µM) | > 256 | 16 (≈ 18.5 µM) | – | > 256 | > 64 | 64 (≈ 73.8 µM) | – | – | – | – | – |
